Measurements as given in patent US9802918B2, “Pyridineamine compounds useful as Pim kinase inhibitors” (Incyte Corporation, priority 2015, dated 2017).

Columns and labels:
Assay type in all cases: biochemical
[1] = target: Pim-3 (Homo sapiens (Human), UniProt Q86V86); assay: Pim-3 kinase assay; settings: 1 mM ATP; read-out: Pim3 IC50
Experimental: Pim-1 and Pim-3 kinase assays-20 μL reactions were run in white 384 well polystyrene plates dotted with 0.8 μL compound/DMSO in the assay buffer (50 mM Tris, pH 7.5, 0.01% Tween-20, 5 mM mgCl2, 0.01% BSA, 5 mM DTT), containing […] Biotin-labeled BAD peptide substrate (AnaSpec 62269), 1 mM ATP, and 2.5 pM (Pim-1, Invitrogen PV3503) or 1.25 pM (Pim-3, Millipore 14-738) enzyme for 1 h at 25° C. Reactions were stopped by addition of 10 μL STOP Buffer (150 mM Tris, pH=7.5, 150 mM NaCl, 75 mM EDTA, 0.01% Tween-20, 0.3% BSA,) supplemented with Phospho-Bad (Ser112) Antibody (Cell Signaling 9291) diluted 666-fold, and Streptavidin donor beads (PerkinElmer 6760002) along with Protein-A acceptor beads (PerkinElmer 6760137) at 15 μg/mL each. Supplementation of the STOP buffer with beads and stopping the reactions were done under reduced light. Prior to the stopping reactions STOP buffer with beads was preincubated for 1 h in the dark at room temperature. After stopping the reactions, plates were incubated for 1 h in the dark at room temperature before reading on a PHERAstar FS plate reader (BMG Labtech) under reduced light.

[2] = target: Pim-2 (Homo sapiens (Human), UniProt Q9P1W9); assay: Pim-2 kinase assay; settings: 1 mM ATP; read-out: Pim2 IC50
Pim-2, sequence (Q9P1W9 whole entry): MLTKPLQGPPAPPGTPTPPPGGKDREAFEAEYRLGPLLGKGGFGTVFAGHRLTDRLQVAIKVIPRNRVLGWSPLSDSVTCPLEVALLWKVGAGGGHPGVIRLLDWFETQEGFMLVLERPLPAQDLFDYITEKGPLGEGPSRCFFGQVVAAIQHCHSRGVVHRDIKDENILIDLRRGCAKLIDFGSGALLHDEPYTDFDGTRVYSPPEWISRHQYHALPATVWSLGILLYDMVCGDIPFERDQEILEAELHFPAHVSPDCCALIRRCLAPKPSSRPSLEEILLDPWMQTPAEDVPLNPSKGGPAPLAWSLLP
Experimental: Pim-2 kinase assay—20 μL reactions were run in white 384 well polystyrene plates dotted with 0.8 μL compound/DMSO in the assay buffer (50 mM Tris, pH 7.5, 0.01% Tween-20, 5 mM mgCl2, 0.01% BSA, 5 mM DTT), containing […] Fluorescein-labeled CREBtide peptide substrate (Invitrogen PV3508), 1 mM ATP, and 1 nM enzyme (Invitrogen PV3649) for 2 h at 25° C. Reactions were stopped by addition of 10 μL TR-FRET Dilution Buffer (Invitrogen PV3574) with 30 mM EDTA and 1.5 nM LanthaScreen Tb-CREB pSer133 antibody (Invitrogen PV3566). After 30 min. incubation at room temperature, plates were read on a PHERAstar FS plate reader (BMG Labtech).

[3] = target: Pim-1 (Homo sapiens (Human), UniProt P11309); assay: Pim-1 kinase assay; settings: 1 mM ATP; read-out: Pim1 IC50
Pim-1, sequence (P11309 whole entry): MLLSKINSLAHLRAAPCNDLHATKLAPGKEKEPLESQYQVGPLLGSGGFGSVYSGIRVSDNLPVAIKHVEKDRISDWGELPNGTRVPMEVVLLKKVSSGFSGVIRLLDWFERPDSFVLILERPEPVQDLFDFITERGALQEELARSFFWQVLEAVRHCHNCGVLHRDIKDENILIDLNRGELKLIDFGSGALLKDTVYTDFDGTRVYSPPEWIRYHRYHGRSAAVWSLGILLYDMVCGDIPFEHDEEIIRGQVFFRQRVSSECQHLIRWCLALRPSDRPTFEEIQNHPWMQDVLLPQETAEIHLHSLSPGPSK
Experimental: Supplementation of the STOP buffer with beads and stopping the reactions were done under reduced light. Prior to the stopping reactions STOP buffer with beads was preincubated for 1 h in the dark at room temperature. After stopping the reactions, plates were incubated for 1 h in the dark at room temperature before reading on a PHERAstar FS plate reader (BMG Labtech) under reduced light.

SMILES	IC50 [1]	IC50 [2]	IC50 [3]
C[C@H]1CN(c2ccncc2NCc2ccc(F)c(-c3c(F)cncc3F)n2)C[C@@H](N)[C@@H]1O [Example 16, (3R,4R,5S)-3-Amino-5-methyl-1-(3-(((3,3′,5′-trifluoro-[2,4′-bipyridin]-6-yl)methyl)amino)pyridin-4-yl)piperidin-4-ol]	≤ 10 nM	100 to 1000 nM	< 10 nM
C[C@H]1CN(c2ccncc2NCc2ccc(F)c(-c3c(F)cccc3C#N)n2)C[C@@H](N)[C@@H]1O [Example 17, 2-(6-((4-((3R,4R,5S)-3-Amino-4-hydroxy-5-methylpiperidin-1-yl)pyridin-3-ylamino)methyl)-3-fluoropyridin-2-yl)-3-fluorobenzonitrile]	≤ 10 nM	100 to 1000 nM	< 10 nM
C[C@H]1CN(c2ccncc2NCc2ccc(F)c(-c3ccccc3F)n2)C[C@@H](N)[C@@H]1O [Example 18, (3R,4R,5S)-3-Amino-1-(3-(((5-fluoro-6-(2-fluorophenyl)pyridin-2-yl)methyl)amino)pyridin-4-yl)-5-methylpiperidin-4-ol]	≤ 10 nM	100 to 1000 nM	< 10 nM
C[C@@H]1C[C@H](N)CN(c2ccncc2NCc2ccc(F)c(-c3c(F)cccc3F)n2)C1 [Example 19, 4-[(3S,5R)-3-Amino-5-methylpiperidin-1-yl]-N-{[6-(2,6-difluorophenyl)-5-fluoropyridin-2-yl]methyl}pyridin-3-amine]	≤ 10 nM	≤ 100 nM	< 10 nM
COc1cccc(F)c1-c1nc(CNc2cnccc2N2C[C@H](C)C[C@H](N)C2)ccc1F [Example 20, 4-((3S,5R)-3-Amino-5-methylpiperidin-1-yl)-N-((5-fluoro-6-(2-fluoro-6-methoxyphenyl)pyridin-2-yl)methyl)pyridin-3-amine]	10 to 50 nM	1000 to 10000 nM	< 10 nM
C[C@@H]1C[C@H](N)CN(c2ccncc2NCc2ccc(F)c(-c3c(F)cncc3F)n2)C1 [Example 21, 4-((3S,5R)-3-Amino-5-methylpiperidin-1-yl)-N-((3,3′,5′-trifluoro-2,4′-bipyridin-6-yl)methyl)pyridin-3-amine]	≤ 10 nM	100 to 1000 nM	< 10 nM
C[C@@H]1C[C@H](N)CN(c2ccncc2NCc2ccc(F)c(-c3c(F)cccc3C#N)n2)C1 [Example 22, 2-(6-((4-((3S,5R)-3-Amino-5-methylpiperidin-1-yl)pyridin-3-ylamino)methyl)-3-fluoropyridin-2-yl)-3-fluorobenzonitrile]	≤ 10 nM	100 to 1000 nM	< 10 nM
C[C@@H]1C[C@H](N)CN(c2ccncc2NCc2ccc(F)c(-c3ccccc3F)n2)C1 [Example 23, 4-((3S,5R)-3-Amino-5-methylpiperidin-1-yl)-N-((5-fluoro-6-(2-fluorophenyl)pyridin-2-yl)methyl)pyridin-3-amine]	≤ 10 nM	100 to 1000 nM	< 10 nM
C[C@H]1CN(c2ccncc2NCc2ccc(F)c(-c3c(F)cc(C(C)(C)C#N)cc3F)n2)C[C@@H](N)[C@@H]1O [Example 24, 2-(4-{6-[({4-[(3R,4R,5S)-3-Amino-4-hydroxy-5-methylpiperidin-1-yl]pyridin-3-yl}amino)methyl]-3-fluoropyridin-2-yl}-3,5-difluorophenyl)-2-methylpropanenitrile]	≤ 10 nM	≤ 100 nM	< 10 nM
C[C@@H]1C[C@H](N)CN(c2ccncc2NCc2ccc(F)c(-c3c(F)cc(C(C)(C)C#N)cc3F)n2)C1 [Example 24A, 2-(4-{6-[({4-[(3S,5R)-3-Amino-5-methylpiperidin-1-yl]pyridin-3-yl}amino)methyl]-3-fluoropyridin-2-yl}-3,5-difluorophenyl)-2-methylpropanenitrile]	≤ 10 nM	≤ 100 nM	< 10 nM
C[C@H]1CN(c2ccncc2NCc2ccc(F)c(-c3c(F)cccc3F)c2)C[C@@H](N)[C@@H]1O [Example 24B, (3R,4R,5S)-3-Amino-5-methyl-1-(3-{[(2′,6,6′-trifluorobiphenyl-3-yl)methyl]amino}pyridin-4-yl)piperidin-4-ol]	≤ 10 nM	100 to 1000 nM	< 10 nM
C[C@@H]1C[C@H](N)CN(c2ccncc2NCc2ccc(F)c(-c3c(F)cccc3F)c2)C1 [Example 25, 4-[(3S,5R)-3-Amino-5-methylpiperidin-1-yl]-N-[(2′,6,6′-trifluorobiphenyl-3-yl)methyl]pyridin-3-amine]	≤ 10 nM	100 to 1000 nM	< 10 nM
C[C@@H]1C[C@H](N)CN(c2ccncc2NCc2ccc(F)c(-c3c(F)cc(C4(O)CCC4)cc3F)c2)C1 [Example 26, 1-(5′-((4-((3S,5R)-3-Amino-5-methylpiperidin-1-yl)pyridin-3-ylamino)methyl)-2,2′,6-trifluorobiphenyl-4-yl)cyclobutanol]	≤ 10 nM	100 to 1000 nM	< 10 nM
C[C@@H]1C[C@H](N)CN(c2ccncc2NCc2ccc(F)c(-c3c(F)cc(C4(O)CCOCC4)cc3F)c2)C1 [Example 27, 4-(5′-((4-((3S,5R)-3-Amino-5-methylpiperidin-1-yl)pyridin-3-ylamino)methyl)-2,2′,6-trifluorobiphenyl-4-yl)tetrahydro-2H-pyran-4-ol]	≤ 10 nM	100 to 1000 nM	< 10 nM
C[C@H]1CN(c2ccncc2NCc2cccc(-c3c(F)cccc3F)n2)C[C@@H](N)[C@@H]1O [Example 28, (3R,4R,5S)-3-Amino-1-[3-({[6-(2,6-difluorophenyl)pyridin-2-yl]methyl}amino)pyridin-4-yl]-5-methylpiperidin-4-ol]	≤ 10 nM	100 to 1000 nM	< 10 nM
C[C@@H]1C[C@H](N)CN(c2ccncc2NCc2cccc(-c3c(F)cccc3F)n2)C1 [Example 29, 4-[(3S,5R)-3-Amino-5-methylpiperidin-1-yl]-N-{[6-(2,6-difluorophenyl)pyridin-2-yl]methyl}pyridin-3-amine]	≤ 10 nM	100 to 1000 nM	< 10 nM
C[C@H]1CN(c2ccncc2NCc2ccnc(-c3c(F)cccc3F)n2)C[C@@H](N)[C@@H]1O [Example 30, (3R,4R,5S)-3-Amino-1-[3-({[2-(2,6-difluorophenyl)pyrimidin-4-yl]methyl}amino)pyridin-4-yl]-5-methylpiperidin-4-ol]	10 to 50 nM	1000 to 10000 nM	10 to 50 nM
C[C@@H]1C[C@H](N)CN(c2ccncc2NCc2ccnc(-c3c(F)cccc3F)n2)C1 [Example 31, 4-[(3S,5R)-3-Amino-5-methylpiperidin-1-yl]-N-{[2-(2,6-difluorophenyl)pyrimidin-4-yl]methyl}pyridin-3-amine]	10 to 50 nM	1000 to 10000 nM	< 10 nM
C[C@H]1CN(c2ccncc2NCc2ccc(F)c(-c3c(F)cc(N4CCOCC4)cc3F)n2)C[C@@H](N)[C@@H]1O [Example 32, (3R,4R,5S)-3-Amino-1-(3-(((6-(2,6-difluoro-4-morpholinophenyl)-5-fluoropyridin-2-yl)methyl)amino)pyridin-4-yl)-5-methylpiperidin-4-ol]	≤ 10 nM	≤ 100 nM	< 10 nM
C[C@@H]1C[C@H](N)CN(c2ccncc2NCc2ccc(F)c(-c3c(F)cc(N4CCOCC4)cc3F)n2)C1 [Example 33, 4-((3S,5R)-3-Amino-5-methylpiperidin-1-yl)-N-((6-(2,6-difluoro-4-morpholinophenyl)-5-fluoropyridin-2-yl)methyl)pyridin-3-amine]	≤ 10 nM	≤ 100 nM	< 10 nM
